Results reported in patent US12325710B2, “Substituted 1,2,3,4,5,6-hexahydroazepino[4,5-b]indoles for treating brain disorders” (priority 2019, dated 2025).
“Also recorded” adds a separate entry of the source.

Key:
[1] = target: 5-HT2B receptors (Homo sapiens, UniProt P41595); test: 5-HT2B Gq-mediated calcium flux functional assay; type: cell-based
Method: (§1) Serotonin and Opioid Receptor Functional Assays. Functional assay screens at 5-HT and opioid receptors were performed in parallel using the same compound dilutions and 384-well format high-throughput assay platforms. Assays assessed activity at all human isoforms of the receptors, except where noted for the mouse 5-HT2A receptor. Receptor constructs in pcDNA vectors were generated from the Presto-Tango GPCR library with minor modifications. All compounds were serially diluted in drug buffer (HBSS, 20 mM HEPES, pH 7.4 supplemented with 0.1% bovine serum albumin and 0.01% ascorbic acid) and dispensed into 384-well assay plates using a FLIPR^TETRA (Molecular Devices). Every plate included a positive control such as 5-HT (for all 5-HT receptors), DADLE (DOR), salvinorin A (KOR), and DAMGO (MOR). For measurements of 5-HT2A, 5-HT2B, and 5-HT2C Gq-mediated calcium flux function, HEK Flp-In 293 T-Rex stable cell lines (Invitrogen) were loaded with Fluo-4 dye for one hour, stimulated with compounds and read for baseline (0-10 seconds) and peak fold-over-basal fluorescence (5 minutes) at 25° C. on the FLIPR^TETRA. For measurement of 5-HT6 and 5-HT7a functional assays, Gs-mediated cAMP accumulation was detected using the split-luciferase GloSensor assay in HEKT cells measuring luminescence on a Microbeta Trilux (Perkin Elmer) with a 15 min drug incubation at 25° C. For 5-HT1A, 5-HT1B, 5-HT1F, MOR, KOR, and DOR functional assays, Gi/o-mediated cAMP inhibition was measured using the split-luciferase GloSensor assay in HEKT cells, conducted similarly as above, but in combination with either 0.3 μM isoproterenol (5-HT1A, 5-HT1B, 5-HT1F) or 1 μM forskolin (MOR, KOR, and DOR) to stimulate endogenous cAMP accumulation. For measurement of 5-HT1D, 5-HT1E, 5-HT4, and 5-HT5A functional assays, β-arrestin2 recruitment was measured by the Tango assay utilizing HTLA cells expressing TEV fused-β-arrestin2, as described previously with minor modifications. […]

[2] = target: T1, 5-HT1A (Homo sapiens, UniProt P08908); test: 5-HT1A functional assay (Gi/o-mediated cAMP inhibition); type: cell-based
T1 construct: expressed in transfected cells; host or cells: HEKT cells (GloSensor cAMP assay)
T1 sequence (P08908 1-422): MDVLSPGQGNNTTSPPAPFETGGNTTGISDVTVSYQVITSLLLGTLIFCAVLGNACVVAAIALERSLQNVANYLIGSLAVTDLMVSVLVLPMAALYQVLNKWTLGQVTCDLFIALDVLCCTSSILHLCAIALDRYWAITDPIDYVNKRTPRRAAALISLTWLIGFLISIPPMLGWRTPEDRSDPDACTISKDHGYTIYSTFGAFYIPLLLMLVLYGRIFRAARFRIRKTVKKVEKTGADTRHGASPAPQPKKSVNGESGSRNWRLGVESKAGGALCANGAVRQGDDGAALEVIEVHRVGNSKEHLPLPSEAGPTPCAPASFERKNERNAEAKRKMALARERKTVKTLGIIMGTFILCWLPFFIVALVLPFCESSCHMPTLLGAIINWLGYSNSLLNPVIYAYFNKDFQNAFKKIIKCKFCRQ
Method: as §1, with “C.” for “C. For 5-HT1A, 5-HT1B, 5-HT1F, MOR, KOR, and DOR functional assays, Gi/o-mediated cAMP inhibition was measured using the split-luciferase GloSensor assay in HEKT cells, conducted similarly as above, but in combination with either 0.3 μM isoproterenol (5-HT1A, 5-HT1B, 5-HT1F) or 1 μM forskolin (MOR, KOR, and DOR) to stimulate endogenous cAMP accumulation. For measurement of 5-HT1D, 5-HT1E, 5-HT4, and 5-HT5A functional assays, β-arrestin2 recruitment was measured by the Tango assay utilizing HTLA cells expressing TEV fused-β-arrestin2, as described previously with minor modifications.”

[3] = Solubility in 0.9% saline; conditions: saline or isotonic
[4] = target: T2, hERG channels expressed in HEK293 cells (Homo sapiens, UniProt Q12809); type: cell-based; conditions: relative to ibogaine
T2 construct: expressed in transfected cells
T2 sequence (Q12809 whole entry): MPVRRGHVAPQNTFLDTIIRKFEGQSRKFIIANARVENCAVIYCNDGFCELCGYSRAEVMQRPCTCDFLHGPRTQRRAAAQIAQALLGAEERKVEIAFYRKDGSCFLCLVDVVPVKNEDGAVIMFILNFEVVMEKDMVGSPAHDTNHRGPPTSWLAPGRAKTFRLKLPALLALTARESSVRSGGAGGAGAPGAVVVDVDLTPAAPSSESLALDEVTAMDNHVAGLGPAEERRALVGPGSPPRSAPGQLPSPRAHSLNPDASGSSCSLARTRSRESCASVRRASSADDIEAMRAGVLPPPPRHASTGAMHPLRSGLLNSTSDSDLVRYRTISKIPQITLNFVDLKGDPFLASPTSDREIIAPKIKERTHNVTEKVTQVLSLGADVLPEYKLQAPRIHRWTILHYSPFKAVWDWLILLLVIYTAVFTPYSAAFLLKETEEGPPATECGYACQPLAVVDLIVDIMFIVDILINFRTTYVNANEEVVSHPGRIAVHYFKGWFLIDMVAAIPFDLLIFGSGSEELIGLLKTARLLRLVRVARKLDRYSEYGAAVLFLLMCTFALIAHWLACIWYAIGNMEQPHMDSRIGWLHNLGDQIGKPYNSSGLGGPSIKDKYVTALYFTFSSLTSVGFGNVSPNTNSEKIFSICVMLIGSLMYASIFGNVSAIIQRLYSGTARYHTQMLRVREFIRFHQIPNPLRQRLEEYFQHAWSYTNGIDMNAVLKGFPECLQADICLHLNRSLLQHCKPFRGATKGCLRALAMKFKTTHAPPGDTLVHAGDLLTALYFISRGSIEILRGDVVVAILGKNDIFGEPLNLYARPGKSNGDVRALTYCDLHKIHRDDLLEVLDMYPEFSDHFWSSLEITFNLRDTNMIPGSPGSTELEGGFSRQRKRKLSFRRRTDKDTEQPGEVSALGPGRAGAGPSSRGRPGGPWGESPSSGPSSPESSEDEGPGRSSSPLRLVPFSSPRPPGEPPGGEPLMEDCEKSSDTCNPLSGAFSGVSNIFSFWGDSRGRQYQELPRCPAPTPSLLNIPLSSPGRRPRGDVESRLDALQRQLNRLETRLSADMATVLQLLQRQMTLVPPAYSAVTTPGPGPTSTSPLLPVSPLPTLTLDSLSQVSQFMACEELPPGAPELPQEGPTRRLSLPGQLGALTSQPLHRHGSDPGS
Method: hERG Inhibition Studies. All experiments were conducted manually using an EPC-10 amplifier (HEKA, Lambrecht/Pfalz, Germany) at room temperature in the whole-cell mode of the patch-clamp technique. HEK-293 cells stably expressing hKv11.1 (hERG) under G418 selection were a generous gift from Craig January (University of Wisconsin, Madison). Cells were cultured in DMEM containing 10% fetal bovine serum, 2 mM glutamine, 1 mM sodium pyruvate, 100 U/mL penicillin, 100 μg/mL streptomycin, and […]. Before experiments, cells were cultured to 60-80% confluency and lifted using TrypLE and plated onto poly-L-lysine-coated coverslips. Patch pipettes were pulled from soda lime glass (micro-hematocrit tubes) and had resistances of 2-4 MO. For the external solution, normal sodium Ringer was used (160 mM NaCl, 4.5 mM KCl, 2 mM CaCl2, 1 mM MgCl2, 10 mM HEPES, pH 7.4 and 290-310 mOsm). The internal solution used was potassium fluoride with ATP (160 mM KF, 2 mM MgCl2, 10 mM EGTA, 10 mM HEPES, 4 mM NaATP, pH=7.2 and 300-320 mOsm). A 2-step pulse (applied every 10 sec) from −80 mV first to 40 mV for 2 sec and then to −60 mV for 4 sec, was used to elicit hERG currents. The percent reduction of tail current amplitude by the drugs was determined and data are shown as mean+/−SD. For all experiments, solutions of the drugs were prepared fresh from 10 mM stock solutions in DMSO. […]

[5] = target: T3, 5-HT2C (Homo sapiens, UniProt P28335); test: 5-HT2C Gq-mediated calcium flux functional assay; type: cell-based
T3 sequence (P28335 33-458): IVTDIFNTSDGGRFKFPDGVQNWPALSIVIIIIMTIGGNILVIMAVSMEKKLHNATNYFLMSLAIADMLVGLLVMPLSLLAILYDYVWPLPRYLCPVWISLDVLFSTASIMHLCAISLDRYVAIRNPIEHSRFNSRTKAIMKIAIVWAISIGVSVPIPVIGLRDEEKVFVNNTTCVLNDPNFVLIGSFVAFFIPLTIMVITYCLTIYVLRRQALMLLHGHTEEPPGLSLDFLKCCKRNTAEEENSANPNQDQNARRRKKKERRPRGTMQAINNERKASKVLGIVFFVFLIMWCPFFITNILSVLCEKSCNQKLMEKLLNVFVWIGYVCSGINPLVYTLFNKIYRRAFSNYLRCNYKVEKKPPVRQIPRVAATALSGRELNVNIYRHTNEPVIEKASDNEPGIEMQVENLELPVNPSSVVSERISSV
Method: as §1, with “C.” for “C. For 5-HT1A, 5-HT1B, 5-HT1F, MOR, KOR, and DOR functional assays, Gi/o-mediated cAMP inhibition was measured using the split-luciferase GloSensor assay in HEKT cells, conducted similarly as above, but in combination with either 0.3 μM isoproterenol (5-HT1A, 5-HT1B, 5-HT1F) or 1 μM forskolin (MOR, KOR, and DOR) to stimulate endogenous cAMP accumulation. For measurement of 5-HT1D, 5-HT1E, 5-HT4, and 5-HT5A functional assays, β-arrestin2 recruitment was measured by the Tango assay utilizing HTLA cells expressing TEV fused-β-arrestin2, as described previously with minor modifications.”

[6] = tested on: zebrafish; test: Zebrafish developmental toxicity assay; type: in vivo; conditions: 100 μM; 2 and 5 dpf
[7] = tested on: opioid receptors (MOR, KOR, DOR); test: Opioid receptor functional assays (Gi/o-mediated cAMP inhibition); type: cell-based, human
Method: as §1, with “C.” for “C. For 5-HT1A, 5-HT1B, 5-HT1F, MOR, KOR, and DOR functional assays, Gi/o-mediated cAMP inhibition was measured using the split-luciferase GloSensor assay in HEKT cells, conducted similarly as above, but in combination with either 0.3 μM isoproterenol (5-HT1A, 5-HT1B, 5-HT1F) or 1 μM forskolin (MOR, KOR, and DOR) to stimulate endogenous cAMP accumulation. For measurement of 5-HT1D, 5-HT1E, 5-HT4, and 5-HT5A functional assays, β-arrestin2 recruitment was measured by the Tango assay utilizing HTLA cells expressing TEV fused-β-arrestin2, as described previously with minor modifications.”

[8] = tested on: rat embryonic cortical neurons; test: Dendritogenesis (Sholl analysis) in cultured cortical neurons; type: cell-based; conditions: 1 h treatment followed by 71 h growth; compared to vehicle (VEH)
Method: Embryonic rat cortical neurons were treated for a short period of time (1 h) followed by a suitable growth period (71 h) to measure the psychoplastogenic effects of the compounds described herein. […] Therefore, the effects of ibogalogs 8-17 on dendritic growth was assessed.
Dendritogenesis Experiments. For the dendritogenesis experiments conducted using cultured cortical neurons, timed pregnant Sprague Dawley rats were obtained from Charles River Laboratories (Wilmington, MA). Full culturing, staining, and analysis details were performed as previously described. (Dunlap, L. et al., 2019)

[9] = tested on: larval zebrafish; test: Larval zebrafish movement activity during a battery of light and acoustic stimuli
From the text: Stimuli applied over time are indicated under the heatmaps. Colors indicate bright LED light of respective colors, black traces represent the waveforms of acoustic stimuli, and gray vertical lines indicate physical tapping as secondary acoustic stimuli.
Response is […] proportional to classification accuracy; 0-20% indicates no ability and 100% indicates perfect classification. […] The solid line denotes the median and the shading denotes a 95th percentile confidence interval calculated by bootstrap. N=8 wells/condition (64 animals/condition).

[10] = tested on: C57BL/6J mice; test: Head-twitch response (HTR) assay; conditions: intraperitoneal; fumarate salts; 5-MeO-DMT 10 mg/kg as positive control
[11] = target: human 5-HT2A receptors (Homo sapiens, UniProt P28223); test: 5-HT2A Gq-mediated calcium flux functional assay (human); type: cell-based
Sequence of human 5-HT2A receptors (P28223 whole entry, the tested form may be a part): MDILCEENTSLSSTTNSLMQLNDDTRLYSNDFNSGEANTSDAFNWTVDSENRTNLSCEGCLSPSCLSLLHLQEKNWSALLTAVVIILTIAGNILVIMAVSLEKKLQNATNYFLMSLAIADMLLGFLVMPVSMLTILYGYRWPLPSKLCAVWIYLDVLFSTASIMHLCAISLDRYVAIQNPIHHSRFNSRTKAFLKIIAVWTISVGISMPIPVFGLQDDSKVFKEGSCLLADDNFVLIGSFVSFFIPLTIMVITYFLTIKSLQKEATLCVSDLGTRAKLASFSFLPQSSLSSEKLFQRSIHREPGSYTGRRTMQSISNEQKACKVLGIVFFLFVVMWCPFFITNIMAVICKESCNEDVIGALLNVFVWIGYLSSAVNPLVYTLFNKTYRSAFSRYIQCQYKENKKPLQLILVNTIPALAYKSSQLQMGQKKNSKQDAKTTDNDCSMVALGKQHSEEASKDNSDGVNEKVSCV
Method: as §1, with “C.” for “C. For 5-HT1A, 5-HT1B, 5-HT1F, MOR, KOR, and DOR functional assays, Gi/o-mediated cAMP inhibition was measured using the split-luciferase GloSensor assay in HEKT cells, conducted similarly as above, but in combination with either 0.3 μM isoproterenol (5-HT1A, 5-HT1B, 5-HT1F) or 1 μM forskolin (MOR, KOR, and DOR) to stimulate endogenous cAMP accumulation. For measurement of 5-HT1D, 5-HT1E, 5-HT4, and 5-HT5A functional assays, β-arrestin2 recruitment was measured by the Tango assay utilizing HTLA cells expressing TEV fused-β-arrestin2, as described previously with minor modifications.”

[12] = tested on: larval zebrafish; test: Heart rate and arrhythmia in immobilized larval zebrafish
[13] = target: mouse 5-HT2A receptors (Mus musculus, UniProt P35363); test: 5-HT2A Gq-mediated calcium flux functional assay (mouse); type: cell-based
Sequence of mouse 5-HT2A receptors (P35363 whole entry, the tested form may be a part): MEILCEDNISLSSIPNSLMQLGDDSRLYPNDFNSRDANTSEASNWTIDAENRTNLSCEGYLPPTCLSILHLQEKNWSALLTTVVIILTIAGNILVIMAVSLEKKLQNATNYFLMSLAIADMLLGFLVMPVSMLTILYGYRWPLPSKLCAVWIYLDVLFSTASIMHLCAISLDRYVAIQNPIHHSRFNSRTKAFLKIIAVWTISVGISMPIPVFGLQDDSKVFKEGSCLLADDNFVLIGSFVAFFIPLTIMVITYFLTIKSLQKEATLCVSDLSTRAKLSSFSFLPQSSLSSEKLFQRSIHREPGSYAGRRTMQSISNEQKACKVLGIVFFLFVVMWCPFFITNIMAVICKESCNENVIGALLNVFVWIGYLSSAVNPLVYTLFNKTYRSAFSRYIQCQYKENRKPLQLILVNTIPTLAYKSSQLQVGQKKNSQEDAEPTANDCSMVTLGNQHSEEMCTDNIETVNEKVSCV
Method: as §1, with “C.” for “C. For 5-HT1A, 5-HT1B, 5-HT1F, MOR, KOR, and DOR functional assays, Gi/o-mediated cAMP inhibition was measured using the split-luciferase GloSensor assay in HEKT cells, conducted similarly as above, but in combination with either 0.3 μM isoproterenol (5-HT1A, 5-HT1B, 5-HT1F) or 1 μM forskolin (MOR, KOR, and DOR) to stimulate endogenous cAMP accumulation. For measurement of 5-HT1D, 5-HT1E, 5-HT4, and 5-HT5A functional assays, β-arrestin2 recruitment was measured by the Tango assay utilizing HTLA cells expressing TEV fused-β-arrestin2, as described previously with minor modifications.”

[14] = tested on: C57/BL6J mice; test: Forced swim test (FST); type: in vivo, mouse; conditions: 24 h after drug administration; TBG 50 mg/kg, ketamine 3 mg/kg i.p.
Method: Forced Swim Test (FST). Male C57/BL6J mice (9-10 weeks old at time of experiment, n=10 per condition) were obtained from the Jackson Lab and housed 4-5 mice/cage in a UCD vivarium following an IACUC approved protocol. After 1 week in the vivarium each mouse was handled for approximately 1 minute by a experimenter for 3 consecutive days leading up to the first FST. All experiments were carried out by the same experimenter who performed handling. During the FST, mice underwent a 6 min swim session in a clear Plexiglas cylinder 40 cm tall, 20 cm in diameter, and filled with 30 cm of 24±1° C. water. Fresh water was used for every mouse. After handling and habituation to the experimenter, drug-naïve mice first underwent a pretest swim to more reliably induce a depressive phenotype in the subsequent FST sessions. Immobility scores for all mice were determined after the pre-test and mice were randomly assigned to treatment groups to generate groups with similar average immobility scores to be used for the following two FST sessions. […] Experiments were video-recorded and manually scored offline. Immobility time—defined as passive floating or remaining motionless with no activity other than that needed to keep the mouse's head above water—was scored for the last 4 min of the 6 min trial.

Sequence of 5-HT2B receptors (P41595 whole entry, canonical isoform): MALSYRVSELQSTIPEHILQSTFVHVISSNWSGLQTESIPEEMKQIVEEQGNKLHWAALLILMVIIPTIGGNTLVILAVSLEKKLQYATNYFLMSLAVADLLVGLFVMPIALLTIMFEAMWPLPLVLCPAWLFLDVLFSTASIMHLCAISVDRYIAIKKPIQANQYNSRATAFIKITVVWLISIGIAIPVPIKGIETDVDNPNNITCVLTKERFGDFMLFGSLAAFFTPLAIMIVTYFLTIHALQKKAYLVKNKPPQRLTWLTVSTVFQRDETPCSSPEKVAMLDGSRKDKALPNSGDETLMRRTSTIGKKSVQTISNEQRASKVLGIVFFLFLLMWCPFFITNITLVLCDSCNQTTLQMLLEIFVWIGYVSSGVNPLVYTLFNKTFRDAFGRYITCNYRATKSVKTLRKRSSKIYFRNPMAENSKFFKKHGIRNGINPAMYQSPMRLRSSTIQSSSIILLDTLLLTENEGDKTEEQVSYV

SMILES | activity mode at 5-HT2B receptors [1] | 5-HT1A agonist activity compared to 5-MeO-DMT [2] | solubility [3] | fold less potent than ibogaine at hERG [4] | 5-HT2C agonist activity compared to 5-MeO-DMT [5] | malformations, mortality, non-viable fish [6] | opioid agonist activity [7] | psychoplastogenic effect on dendritic growth (Sholl analysis) [8] | behavioral phenotype at highest concentration versus lethal control ([9]; 200 μM) | behavioral phenotype with increasing concentration versus vehicle and lethal control (eugenol, 100 μM) ([9]; 1 h treatment, concentration-response) | machine learning classification of movement responses ([9]; highest concentrations (200 μM)) | hallucinogenic potential (head-twitch response) [10] | agonist activity at human 5-HT2A receptors [11] | heart rate (bradycardia) [12] | likelihood of arrhythmias (ratio of atrium to ventricle BPM) [12] | agonist activity at mouse 5-HT2A receptors [13] | immobility in FST [14]
COc1ccc2[nH]c3c(c2c1)CCN(C)CC3 [IBG] | antagonists | weaker 5-HT1A and 5-HT2C agonist activity | ≥ 40 mg/mL | approximately 10 fold | weaker 5-HT1A and 5-HT2C agonist activity | significantly fewer non-viable fish than ibogaine or noribogaine treatments | weak or no opioid agonist activity | performed comparably to ibogaine | did not produce this phenotype | do not produce movement responses in larval zebrafish similar to a lethal concentration of eugenol | more similar to vehicle controls than to ibogaine, noribogaine, or lethal controls | significantly reduced hallucinogenic potential | potent agonist activity | Neither IBG nor TBG induced these undesirable phenotypes; also recorded: do not induce bradycardia | Neither IBG nor TBG induced these undesirable phenotypes | potent agonist activity | 
CNC1(c2ccccc2Cl)CCCCC1=O (centres unmarked) [ketamine, reference compound] |  |  |  |  |  |  |  |  |  |  |  |  |  |  |  |  | significantly reduced immobility
